Data on one compound can be found in US10717731B2, “Nitrogen-containing aromatic heterocyclic compound” (MITSUBISHI TANABE PHARMA CORPORATION, priority 2015, dated 2020).

In general, IC50 refers to the concentration that gives 50% inhibition. The low end stands for greater potency, the high end for weaker potency.

The target of one experiment is T1, human CYP11B2 (Homo sapiens, UniProt P19099).
T1 construct: expressed in transfected cells; mitochondrial fraction
T1 sequence (P19099 25-503): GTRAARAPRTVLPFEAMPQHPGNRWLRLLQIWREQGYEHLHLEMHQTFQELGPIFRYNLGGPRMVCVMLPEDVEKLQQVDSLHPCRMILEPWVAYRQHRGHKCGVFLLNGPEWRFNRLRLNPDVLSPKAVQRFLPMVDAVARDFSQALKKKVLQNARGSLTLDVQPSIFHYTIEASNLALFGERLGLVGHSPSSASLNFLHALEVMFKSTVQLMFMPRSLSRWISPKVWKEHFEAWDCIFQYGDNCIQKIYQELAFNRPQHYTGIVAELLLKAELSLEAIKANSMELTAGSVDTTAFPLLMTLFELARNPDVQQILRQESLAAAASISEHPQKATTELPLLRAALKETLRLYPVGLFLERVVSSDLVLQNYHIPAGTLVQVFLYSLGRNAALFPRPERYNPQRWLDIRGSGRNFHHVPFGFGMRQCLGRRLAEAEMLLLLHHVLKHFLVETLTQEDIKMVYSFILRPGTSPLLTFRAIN
The experiment in a line: Inhibitory effect on hCYP11B2: aldosterone production in mitochondrial fraction of V79 cells stably expressing human CYP11B2, HTRF. To be noted: 0.5 μmol/L deoxycorticosterone, 150 μmol/L NADPH, 1.5-2 hours at room temperature. The class given is biochemical. The procedure:
Experimental Example 1 (Inhibitory Effect on hCYP11B2)
The pcDNA3.1-human CYP11B2 plasmid was transfected into a Chinese hamster lung fibroblast V79 cell line to produce a cell line stably expressing human CYP11B2 gene.
The cells were cultured and grown in the Dulbecco's modified Eagle's/Ham's medium supplemented with 10% fetal bovine serum and 1% G418 disulfate solution under the environment of 37° C., 95% air, and 5% CO2, and the grown cells were harvested.
Then, the cells were fractionated to obtain mitochondria by reference to a method described in Chabre et al. JCE & M 85 (11) 4060-68, 2000. In particular, the cells suspended in a 5 mmol/L Tris-HCl buffer (pH 7.4) containing 250 mmol/L sucrose were homogenized in a Teflon (Registered Trademark) Potter Elvehjem homogenizer, and then the suspension was centrifuged (800×g, 15 min.). The supernatant was separated and again centrifuged (10000×g, 15 min.) to obtain a pellet (mitochondrial fraction).
The mitochondrial fraction diluted with a buffer containing 10 mmol/L KH2PO4, 10 mmol/L Tris, 20 mmol/L KCl, 25 mmol/L sucrose, 5 mmol/L MgCl2, and 0.05% bovine serum albumin was dispensed to a 96-well plate. 0.5 μmol/L Deoxycorticosterone, 150 μmol/L NADPH and a compound of each concentration were added to each well, and incubated for 1.5-2 hours at room temperature to produce aldosterone. An amount of the produced aldosterone in the incubated solution was determined by using HTRF (Homogeneous Time Resolved Fluorescence) method.
IC50 (nmol/L) was calculated by analyzing the aldosterone production inhibition rate (%) of each concentration of compounds by non-linear regression to a logistic curve.
Background: TR-FRET usually uses a lanthanide donor and a delayed reading to cut background.

The target of another experiment is T2, human Cyp11B1 (Homo sapiens, UniProt P15538).
T2 sequence (P15538 25-503): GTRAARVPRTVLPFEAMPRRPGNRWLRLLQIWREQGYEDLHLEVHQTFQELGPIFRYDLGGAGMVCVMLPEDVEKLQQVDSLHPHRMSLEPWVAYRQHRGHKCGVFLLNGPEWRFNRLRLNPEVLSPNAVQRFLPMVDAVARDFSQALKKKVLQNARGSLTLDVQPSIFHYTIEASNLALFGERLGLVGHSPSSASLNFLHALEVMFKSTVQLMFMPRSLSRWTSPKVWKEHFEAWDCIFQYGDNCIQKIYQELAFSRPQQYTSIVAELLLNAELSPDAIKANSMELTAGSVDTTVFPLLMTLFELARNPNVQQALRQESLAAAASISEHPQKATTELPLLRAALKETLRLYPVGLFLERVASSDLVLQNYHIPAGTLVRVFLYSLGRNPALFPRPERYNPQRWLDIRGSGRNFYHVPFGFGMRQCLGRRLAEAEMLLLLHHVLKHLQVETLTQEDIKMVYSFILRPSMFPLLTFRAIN
Nature of the experiment: Selectivity: IC50 against human Cyp11B2 compared with human Cyp11B1. The note with it: ratio of IC50 values (nM). It counts as biochemical.

Each structure is given as a SMILES string.

`CC(C)NC(=O)CN1CCN(c2cncc(-c3ccc4cnn(C)c4c3)n2)CC1` [Example 49] displayed an IC50 against human CYP11B2 of 7.5 nM. Also, on human Cyp11B1, the “IC50 value against human Cyp11B2 versus human Cyp11B1 (selectivity)” value is on record as 100 times.
